Source: patent US9271971B2, “Pyrido[3,4-B]indoles and methods of use” (Medivation Technologies, Inc., priority 2009, dated 2016)

Columns and labels:
[1] = biological target: T1, human recombinant adrenergic α2C receptor (Homo sapiens, UniProt P18825); test: Adrenergic α2C radioligand binding assay; conditions: [3H]MK-912 specific binding, read-out: Percent Inhibition of ligand binding, Adrenergic (0.1 μM ligand conc.) α2C
T1 construct: expressed in transfected cells; host or cells: insect Sf9 cells
T1 sequence (P18825 1-462): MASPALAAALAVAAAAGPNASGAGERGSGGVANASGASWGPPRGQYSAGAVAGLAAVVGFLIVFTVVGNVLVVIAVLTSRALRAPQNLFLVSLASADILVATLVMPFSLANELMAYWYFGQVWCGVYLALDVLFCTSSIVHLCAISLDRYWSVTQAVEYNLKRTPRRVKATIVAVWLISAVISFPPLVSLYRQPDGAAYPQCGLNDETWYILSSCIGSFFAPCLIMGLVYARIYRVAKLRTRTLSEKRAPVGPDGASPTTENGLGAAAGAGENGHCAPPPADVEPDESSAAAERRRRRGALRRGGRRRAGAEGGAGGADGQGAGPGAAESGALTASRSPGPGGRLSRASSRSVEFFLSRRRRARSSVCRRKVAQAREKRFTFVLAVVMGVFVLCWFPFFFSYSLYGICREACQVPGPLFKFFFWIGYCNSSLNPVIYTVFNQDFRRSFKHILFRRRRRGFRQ
Protocol: To evaluate in radioligand binding assays the activity of compounds of the invention, human recombinant adrenergic α2C receptor expressed in insect Sf9 cells [Uhlen, S et al., J. Pharmacol. Exp. Ther. (1994), 271:1558] in a modified Tris-HCl buffer (50 mM Tris-HCl, pH 7.4, 12.5 mM MgCl2, 2 mM EDTA) was used. Compounds of the invention were incubated with 1 nM [^3H]MK-912 for 60 min. at 25° C. Non-specific binding was estimated in the presence of 10 μM WB-4101. Receptor proteins were filtered and washed, the filters were then counted to determine [^3H]MK-912 specifically bound. Compounds were screened at 1 μM or lower, using 1% DMSO as vehicle. Compounds of the invention were tested in this biochemical assay. Biochemical assay results for representative compounds were presented as the percent inhibition of specific binding in Table 3.

[2] = biological target: T2, rat adrenergic α1A receptor (Rattus norvegicus, UniProt P43140); test: Adrenergic α1A radioligand binding assay; conditions: [3H]Prozosin specific binding, read-out: Percent Inhibition of ligand binding, Adrenergic (0.1 μM ligand conc.) α1A
T2 construct: rat adrenergic α1A receptor obtained from Wistar Rat submaxillary glands; from tissue; host or cells: Wistar Rat submaxillary glands
T2 sequence (P43140 1-466): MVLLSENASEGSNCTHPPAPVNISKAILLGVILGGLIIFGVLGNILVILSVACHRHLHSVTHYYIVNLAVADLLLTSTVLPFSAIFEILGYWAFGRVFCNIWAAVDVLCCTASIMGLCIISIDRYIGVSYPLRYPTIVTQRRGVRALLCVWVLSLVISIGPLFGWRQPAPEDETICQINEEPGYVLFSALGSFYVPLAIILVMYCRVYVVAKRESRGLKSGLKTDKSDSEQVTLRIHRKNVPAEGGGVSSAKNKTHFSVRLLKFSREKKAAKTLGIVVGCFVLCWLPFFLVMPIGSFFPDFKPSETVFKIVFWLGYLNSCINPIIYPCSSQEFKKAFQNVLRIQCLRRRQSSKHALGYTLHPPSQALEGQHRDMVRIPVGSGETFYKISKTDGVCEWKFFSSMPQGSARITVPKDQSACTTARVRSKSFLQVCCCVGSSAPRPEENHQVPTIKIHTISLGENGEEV
Protocol: To evaluate in radioligand binding assays the activity of compounds of the invention, rat adrenergic α1A receptor obtained from Wistar Rat submaxillary glands (Michel, A. D. et al., Br. J. Pharmacol. (1989), 98:883] in a modified Tris-HCl buffer (50 mM Tris-HCl buffer, pH 7.4, 0.5 mM EDTA) was used. Compounds of the invention were incubated with 0.25 nM [^3H]Prozosin for 60 min. at 25° C. Non-specific binding was estimated in the presence of 10 μM phentolamine. Receptor proteins were filtered and washed, the filters were then counted to determine [^3H]Prozosin specifically bound. Compounds of the invention were screened at 1 μM or lower, using 1% DMSO as vehicle. Compounds of the invention were tested in this biochemical assay. Biochemical assay results for representative compounds were presented as the percent inhibition of specific binding in Table 3.

Row | Structure (SMILES) | inhibition at 0.1 µM [1] | inhibition at 0.1 µM [2]
1 | C/C(=C\n1c2c(c3cc(C)ccc31)C1CCN(C2)C1)c1ccc(Cl)cc1Cl (stereo not drawn) [Compound 33] | 16% | 3%
2 | C/C(=C\n1c2c(c3cc(C)ccc31)C1CCN(C2)C1)c1ccncc1 (stereo not drawn) [Compound 44] | 7% | -7%
3 | C/C(=C\n1c2c(c3cc(C)ccc31)C1CCN(C2)C1)c1ccccc1F (stereo not drawn) [Compound 38] | 13% | 14%
4 | Cc1ccc2c(c1)c1c(n2C(=O)Cc2ccc(Cl)cc2)CN2CCC1C2 (stereo not drawn) [Compound 36] | 24% | -18%
5 | C/C(=C\n1c2c(c3cc(C)ccc31)C1CCN(C2)C1)c1ccc(Cl)cc1 (stereo not drawn) [Compound 32] | 39% | 36%
6 | COc1ccc(/C(C)=C/n2c3c(c4cc(C)ccc42)C2CCN(C3)C2)cc1 (stereo not drawn) [Compound 45] | 3% | 24%
